# Data as given in ChEMBL document CHEMBL3045548, “Synthesis of some novel 1,2,4-triazole and 1,3,4-oxadiazole derivatives of biological interest” (2013).
# Key:
# Assay type in all cases: functional
# [1] = system: Saccharomyces cerevisiae; experiment: Antimicrobial activity against Saccharomyces cerevisiae NICM 3312 assessed as growth inhibition by two fold serial dilution method
# [2] = system: Candida albicans; experiment: Antimicrobial activity against Candida albicans NICM 3100 assessed as growth inhibition by two-fold serial dilution method
# [3] = system: Pseudomonas aeruginosa; experiment: Antimicrobial activity against Pseudomonas aeruginosa NICM 2036 assessed as growth inhibition by two-fold serial dilution method
# [4] = system: Staphylococcus epidermidis; experiment: Antimicrobial activity against Staphylococcus epidermidis NICM 2493 assessed as growth inhibition by two fold serial dilution method
# [5] = system: Rhizopus arrhizus; experiment: Antimicrobial activity against Rhizopus oryzae NICM 997 assessed as growth inhibition by two-fold serial dilution method
# [6] = system: Bacillus subtilis; experiment: Antimicrobial activity against Bacillus subtilis NICM 2063 assessed as growth inhibition by two fold serial dilution method
# [7] = system: Escherichia coli; experiment: Antimicrobial activity against Escherichia coli NICM 2138 assessed as growth inhibition by two-fold serial dilution method
# [8] = system: Aspergillus niger; experiment: Antimicrobial activity against Aspergillus niger NICM 572 assessed as growth inhibition by two fold serial dilution method
# [9] = system: Aspergillus flavus; experiment: Antimicrobial activity against Aspergillus flavus NICM 524 assessed as growth inhibition by two fold serial dilution method
# [10] = system: Staphylococcus aureus; experiment: Antimicrobial activity against Staphylococcus aureus NICM 2079 assessed as growth inhibition by two fold serial dilution method
SMILES,MIC [1] [µg/mL],MIC [2] [µg/mL],MIC [3] [µg/mL],MIC [4] [µg/mL],MIC [5] [µg/mL],MIC [6] [µg/mL],MIC [7] [µg/mL],MIC [8] [µg/mL],MIC [9] [µg/mL],MIC [10] [µg/mL]
Cc1nn(-c2ccc(-c3nnc(S)n3N)cc2)c(=O)n1N,150,150,18.8,75,18.8,18.8,37.5,37.5,75,9.37
Cc1nn(-c2ccc(-c3nnc(S)o3)cc2)c(=O)n1/N=C/c1cscn1,150,150,150,18.8,37.5,37.5,37.5,150,150,75
Cc1nn(-c2ccc(-c3nnc(S)o3)cc2)c(=O)n1/N=C/c1ccco1,150,150,37.5,75,150,150,150,150,150,37.5
Cc1nn(-c2ccc(-c3nnc(S)o3)cc2)c(=O)n1/N=C/c1ccc(F)cc1,150,150,75,150,75,75,37.5,75,75,150
Cc1nn(-c2ccc(-c3nnc(S)o3)cc2)c(=O)n1/N=C/c1cc(F)ccc1F,150,18.8,75,18.8,18.8,37.5,150,37.5,9.37,75
Cc1nn(-c2ccc(-c3nnc(S)o3)cc2)c(=O)n1/N=C/c1cccc(F)c1,75,150,75,37.5,150,18.8,9.37,150,150,9.37
Cc1nn(-c2ccc(-c3nnc(S)o3)cc2)c(=O)n1N,150,37.5,37.5,150,75,37.5,75,150,150,75
CSc1nnc(-c2ccc(-n3nc(C)n(N)c3=O)cc2)o1,150,150,75,75,37.5,150,75,150,150,37.5
C[C@@H]1[C@H](O)[C@@H](C)/C=C/C=C/C=C/C=C/C=C/C=C/C=C/[C@H](O[C@@H]2O[C@H](C)[C@@H](O)[C@H](N)[C@@H]2O)C[C@@H]2O[C@](O)(C[C@@H](O)C[C@@H](O)[C@H](O)CC[C@@H](O)C[C@@H](O)CC(=O)O[C@H]1C)C[C@H](O)[C@H]2C(=O)O [AMPHOTERICIN B],6.25,6.25,,,1.56,,,1.56,6.25,
CN[C@@H]1[C@H](O[C@H]2[C@H](O[C@H]3[C@H](O)[C@@H](O)[C@H](N=C(N)N)[C@@H](O)[C@@H]3N=C(N)N)O[C@@H](C)[C@]2(O)C=O)O[C@@H](CO)[C@H](O)[C@H]1O [STREPTOMYCIN],,,3.12,1.56,,6.25,3.12,,,1.56

# Next, values leading:
MIC [1] [µg/mL],MIC [2] [µg/mL],MIC [3] [µg/mL],MIC [4] [µg/mL],MIC [5] [µg/mL],MIC [6] [µg/mL],MIC [7] [µg/mL],MIC [8] [µg/mL],MIC [9] [µg/mL],MIC [10] [µg/mL],SMILES
150,150,150,75,37.5,75,150,150,75,75,Cc1nn(-c2ccc(-c3nnc(S)o3)cc2)c(=O)n1/N=C/c1ccccc1Br
75,150,75,150,9.37,75,75,75,37.5,37.5,Cc1nn(-c2ccc(-c3nnc(S)o3)cc2)c(=O)n1/N=C/c1ccccc1F
150,150,75,75,150,37.5,37.5,150,150,18.8,CCOC(=O)CSc1nnc(-c2ccc(-n3nc(C)n(N)c3=O)cc2)o1
,,9.37,3.12,,1.53,6.25,,,6.25,CC1(C)S[C@@H]2[C@H](NC(=O)Cc3ccccc3)C(=O)N2[C@H]1C(=O)O [PENICILLIN G]
